Results as given in patent USRE47404E1, “Viral hepatitis treatment” (priority 2006, dated 2019).
Where two headings read alike, the source gives them in different places.

What was measured:
[1] = test system: HCV replication in five HCV genotype 1-derived replicon cell lines; test: Median over the five HCV replicon cell lines; type: cell-based, hepatitis C virus; details: median of the replicon cell lines; for EC50 / EC90: Hepatitis C virus
Protocol: (§1) Antiviral activity of nitazoxanide, tizoxanide, interferon α, ribavirin and 2′-C-methyl cytidine was assessed in five different HCV replicon cell lines: (1) AVA5, a subgenomic construct of genotype 1b (Blight et al., 2000, Science 290:1972-1974); (2) H/FL-Neo, a genotype 1a full length construct (Blight et al., 2003, Journal of Virology 77:3181-3190); (3) JWT, a subgenomic construct of genotype 1b (Pfeiffer and Kirkegaard, 2005, Journal of Virology, 79:2346-2355); (4) 4-3-10, a subgenomic construct of genotype 1b, developed by a protocol that involved serial passage of JWT cells in 100 μM for one month followed by 400 μM ribavirin for two weeks (Pfeiffer and Kirkegaard, 2005, Journal of Virology, 79:2346-2355); and (5) RP7, a subgenomic construct of genotype 1b (Elazar et al., 2003, Journal of Virology 77:6055-6061).
(§2) Antiviral activity for each test compound was determined as previously described (Okuse et al., 2005, Antiviral Research 65:23-34). Briefly, replicon cell lines were maintained as sub-confluent cultures on 96-well plates. Compounds were added daily for three days in fresh medium. Twenty-four hours after the last dose of compound, antiviral activity was determined by blot hybridization analysis of intracellular HCV RNA, and cytotoxicity was assessed by neutral red dye uptake. EC50, EC90, CC50 and selectivity index were calculated for each compound tested in a replicon cell line. […] Selectivity index=CC50 divided by EC50. EC50, EC90 and CC50 values (±standard deviations [S.D.]) were calculated by linear regression analysis using data combined from all treated cultures.

[2] = Cytotoxicity, neutral red dye uptake, H/FL-Neo; type: cell-based; details: human
Protocol: (§7) Briefly, replicon cell lines were maintained as sub-confluent cultures on 96-well plates. Compounds were added daily for three days in fresh medium. Twenty-four hours after the last dose of compound, antiviral activity was determined by blot hybridization analysis of intracellular HCV RNA, and cytotoxicity was assessed by neutral red dye uptake. EC50, EC90, CC50 and selectivity index were calculated for each compound tested in a replicon cell line. EC50=drug concentration producing a 50% reduction of intracellular HCV RNA relative to the average levels in untreated cultures. EC90=drug concentration producing a 90% reduction of intracellular HCV RNA relative to the average levels in untreated cultures. CC50=drug concentration producing a 50% reduction of neutral red dye uptake relative to the average levels in untreated cultures. Selectivity index=CC50 divided by EC50. EC50, EC90 and CC50 values (±standard deviations [S.D.]) were calculated by linear regression analysis using data combined from all treated cultures.

[3] = test system: HCV replication in RP7 replicon cell line (subgenomic construct of genotype 1b); test: microbe, parasite or virus in culture; type: cell-based, hepatitis C virus
Protocol: as §1, §2
(§3) Nitazoxanide and tizoxanide were provided by Romark Laboratories, L.C. (Tampa, Fla. USA). […] Ribavirin was purchased from Sigma-Aldrich (St. Louis, Mo. USA). 2′-C-methyl cytidine (Pierra, et al. 2005, Nucleosides Nucleotides Nucleic Acids, 24:767-770) was purchased from Moraveck Biochemicals, Inc. (La Brea, Calif. USA). […] Ribavirin, nitazoxanide, tizoxanide and 2′-C-methyl cytidine were solubilized in 100% tissue culture grade DMSO (Sigma). […] Daily aliquots of test compounds were made from the stock solutions in individual tubes and stored at the appropriate temperatures. On each day of treatment, daily aliquots of the test compounds were suspended into culture medium at room temperature, and immediately added to the cell cultures, thereby subjecting each aliquot of test compound to the same, limited, number of freeze-thaw cycles.
(§4) To evaluate the effect of interferon alpha following pre-treatment with nitazoxanide or tizoxanide, a parental replicon-containing cell line (RP-7) was serially passaged in increasing concentrations of nitazoxanide or tizoxanide. Anti-HCV activity of interferon alpha-2b was determined using the parental cell line and using the cell lines obtained after passage in nitazoxanide or tizoxanide. Anti-HCV activity was determined by the methods described above.
(§5) The parental replicon-containing cell line was established by electroporation of RNA transcribed in vitro off of the Sca-I-linearized Bart 79I plasmid into Huh-7 cells (Elazar et al., 2003). Bart79I encodes for a second-generation high-efficiency bi-cistronic sub-genomic replicon of genotype 1b containing a single adaptive mutation (S1179I) in the NS5A gene, and the neomycinphosphotransferase gene in the first cistron. The electroporated cells were plated along with naïve Huh-7 feeder cells and grown in medium—DMEM (4.5 g/l glucose, L-glutamine and sodium pyruvate—Mediatech 10-013-CV), 10% fetal bovine serum, 1% Penicillin-streptomycin, 1% L-glutamine (final concentration 2 mM), 1×MEM Non-Essential Amino Acids (100×) (Invitrogen)—and 1 mg/ml G418. […] One of the resulting colonies was isolated, expanded, passaged in 700 μg/ml G418, and termed RP-7.

[4] = test system: HCV replication in AVA5 replicon cell line (subgenomic construct of genotype 1b); test: microbe, parasite or virus in culture; details: for S.I. = CC50/EC50: AVA5 cell cultures (Table 2)
Protocol: as §1, §2, §3
Analyses of interactions between compounds used in combination treatments were performed using Calcusyn™ software (Biosoft, Cambridge, UK).

[5] = test system: HCV replication in 4-3-10 replicon cell line (subgenomic genotype 1b, JWT cells passaged in ribavirin); test: microbe, parasite or virus in culture; type: cell-based, hepatitis C virus
Protocol: as §1, §2, §3

[6] = test system: HCV replication in JWT replicon cell line (subgenomic construct of genotype 1b); test: microbe, parasite or virus in culture; type: cell-based, hepatitis C virus
Protocol: as §1, §2, §3

[7] = test system: HCV replication in H/FL-Neo replicon cell line (genotype 1a full length construct); test: microbe, parasite or virus in culture; type: cell-based, hepatitis C virus
Protocol: as §1, §2, §3

[8] = test system: HCV replication; test: Effect of nitazoxanide pre-treatment and treatment duration (3 or 6 days) on antiviral activity in replicon cultures; type: cell-based, hepatitis C virus; details: for EC50 / EC90: Hepatitis C virus; for EC50, IFNα-2b / EC90, IFNα-2b: expressed as IFNα-2b concentration
Protocol: as §2, with “Compounds were added daily for three days in fresh medium.” left out
Antiviral activity and cytotoxicity was determined 24 hours after the end of each respective treatment as described previously.

[9] = test system: AVA5 cells; test: Cytotoxicity, neutral red dye uptake, AVA5; type: cell-based; details: AVA5 cell cultures, mono and combination treatments (Table 2)
Protocol: as §7

[10] = Cytotoxicity, neutral red dye uptake, AVA5; type: cell-based; details: human
Protocol: as §7

[11] = Cytotoxicity, neutral red dye uptake, RP7; type: cell-based; details: human
Protocol: (§6) Selectivity index=CC50 divided by EC50.
as §5

[12] = Cytotoxicity, neutral red dye uptake, JWT; type: cell-based; details: human
Source text: as §6

[13] = Cytotoxicity, neutral red dye uptake, 4-3-10; type: cell-based; details: human
Source text: as §6

[14] = test system: HCV replication in RP7 cells passaged in nitazoxanide; test: HCV replicon antiviral assay, RP7 cells passaged in nitazoxanide; type: cell-based, hepatitis C virus; details: cell lines passaged in nitazoxanide or tizoxanide
Protocol: as §2
as §4, with “above. […]” for “above.”

[15] = Hepatitis C virus, read-out: EC50
[16] = Hepatitis C virus, read-out: EC90
[17] = Hepatitis C virus, GETYPE1B, Ava5, AVA5 cell cultures, mono and combination treatments (Table 2)
[18] = AVA5 cell cultures, mono and combination treatments (Table 2)
[19] = AVA5 (Table 2), values for IFNα-2b expressed in IU/mL
[20] = 4-3-10, interferon α-2b in IU/ml

Row | Compound | EC50 [1] | EC90 [1] | CC50 at 3 days [2] | S.I. (Selectivity Index) = CC50/EC50 [3] | EC50 [3, 15] | EC90 [3, 16] | S.I. (Selectivity Index) = CC50/EC50 ([4]; AVA5) | S.I. = CC50/EC50 [4] | EC50 ([4]; Hepatitis C virus, Ava5, 72 h) | EC90 ([4]; Hepatitis C virus, Ava5, AVA5) | EC90 [4, 17] | S.I. (Selectivity Index) = CC50/EC50 ([5]; 4-3-10) | EC50 ([5]; Hepatitis C virus) | EC90 ([5]; Hepatitis C virus) | S.I. (Selectivity Index) = CC50/EC50 [6] | EC50 [6, 15] | EC90 [6, 16] | S.I. (Selectivity Index) = CC50/EC50 [7] | EC50 [7, 15] | CC50 at 3 days [11] | other results
1 | C[C@@]1(O)[C@H](O)[C@@H](CO)O[C@H]1n1ccc(N)nc1=O [2′-C-methyl cytidine] | 2.1 µM | 8.1 µM | > 1000 µM | >150 | 2 ± 0.1 µM | 9 ± 0.6 µM | >143 | >188 | 2.1 ± 0.2 µM | 8.1 ± 0.7 µM | 8.3 ± 0.7 µM | >143 | 2.1 ± 0.1 µM | 8 ± 0.9 µM | >136 | 2.2 ± 0.1 µM | 8.2 ± 0.7 µM | >556 | 1.8 ± 0.2 µM | > 300 µM | EC90 [7, 16]: 8.1 ± 0.8 µM; EC50 ([8]; 72 h, duration 3 days, expressed as 2′CMeC concentration, read-out: EC50, 2′CMeC): 1.7 ± 0.2 µM; EC90 ([8]; 72 h, duration 3 days, expressed as 2′CMeC concentration, read-out: EC90, 2′CMeC): 6.2 ± 0.5 µM; EC50 ([8]; 144 h, duration 6 days, expressed as 2′CMeC concentration, read-out: EC50, 2′CMeC): 1.3 ± 0.2 µM; EC90 ([8]; 144 h, duration 6 days, expressed as 2′CMeC concentration, read-out: EC90, 2′CMeC): 5.8 ± 0.9 µM; CC50 [9]: > 300 µM; CC50 at 3 days ([10]; AVA5 HCV replicon cells): > 300 µM
2 | CC(=O)Oc1ccccc1C(=O)Nc1ncc([N+](=O)[O-])s1 [Nitazoxanide, nitazoxanide] | 0.13 µM | 1 µM | 49 ± 1.5 µM | 238 | 0.16 ± 0.01 µM | 1.2 ± 0.1 µM | 300 | 181 | 0.13 ± 0.02 µM | 1 ± 0.2 µM | 0.93 ± 0.11 µM | 340 | 0.1 ± 0.03 µM | 0.87 ± 0.16 µM | 354 | 0.11 ± 0.01 µM | 1 ± 0.2 µM | 149 | 0.33 ± 0.05 µM | 38 ± 0.8 µM | EC90 [7, 16]: 1.1 ± 0.1 µM; CC50 at 3 days ([12]; JWT, read-out: CC50): 39 ± 1 µM; EC50 ([8]; 72 h, duration 3 days, expressed as NTZ concentration, read-out: EC50, NTZ): 0.22 ± 0.03 µM; EC90 ([8]; 72 h, duration 3 days, expressed as NTZ concentration, read-out: EC90, NTZ): 1 ± 0.1 µM; EC50 ([8]; 144 h, duration 6 days, expressed as NTZ concentration, read-out: EC50, NTZ): 0.2 ± 0.02 µM; EC90 ([8]; 144 h, duration 6 days, expressed as NTZ concentration, read-out: EC90, NTZ): 0.92 ± 0.1 µM; CC50 at 3 days [13]: 34 ± 0.4 µM; CC50 at 3 days ([10]; AVA5): 39 ± 3.9 µM; CC50 at 3 days [10, 18]: 38 ± 1.8 µM
3 | NC(=O)c1ncn([C@@H]2O[C@H](CO)[C@@H](O)[C@H]2O)n1 [Ribavirin] | 69 µM | 122 µM | – | 1.2 | 69 ± 4.4 µM | 122 ± 13 µM | 1.2 | – | 70 ± 0.5 µM | 220 ± 34 µM | – | – | – | – | 3.9 | 23 ± 2.2 µM | 62 ± 1.7 µM | – | – | 77 ± 4.9 µM | CC50 at 3 days [12]: 89 ± 7.5 µM; CC50 at 3 days ([10]; AVA5 HCV replicon cells): 84 ± 4.7 µM
4 | O=C(Nc1ncc([N+](=O)[O-])s1)c1ccccc1O [Tizoxanide, tizoxanide] | 0.15 µM | 0.77 µM | 4.2 ± 0.2 µM | 167 | 0.15 ± 0.01 µM | 0.94 ± 0.1 µM | 208 | 100 | 0.12 ± 0.01 µM | 0.77 ± 0.1 µM | 0.81 ± 0.92 µM | 191 | 0.11 ± 0.05 µM | 0.55 ± 0.08 µM | 150 | 0.16 ± 0.02 µM | 0.76 ± 0.03 µM | 17 | 0.25 ± 0.03 µM | 25 ± 1 µM | EC90 [7, 16]: 1 ± 0.1 µM; CC50 at 3 days ([12]; JWT, read-out: CC50): 24 ± 2.9 µM; CC50 at 3 days [13]: 21 ± 1.1 µM; CC50 at 3 days ([10]; AVA5): 25 ± 2.8 µM; CC50 at 3 days [10, 18]: 15 ± 1.2 µM
5 | Interferon α-2b | – | – | – | – | – | – | – | – | – | – | – | – | – | – | – | – | – | – | – | – | Median EC50 ([1]; interferon α-2b): 0.86 IU/ml; Median EC90 ([1]; interferon α-2b): 5.7 IU/ml; Resistance after serial passage of the parental cell line in nitazoxanide or tizoxanide [14]: did not induce resistance; EC50 ([3]; interferon α-2b in IU/ml): 0.41 ± 0.01 IU/ml; EC90 ([3]; interferon α-2b in IU/ml): 3.6 ± 0.2 IU/ml; EC50 [4, 19]: 1.9 ± 0.22 IU/mL; EC90 [4, 19]: 8.9 ± 0.92 IU/mL; EC50 ([4]; AVA5, interferon α-2b in IU/ml): 1.5 ± 0.2 IU/ml; EC90 ([4]; AVA5, interferon α-2b in IU/ml): 8.2 ± 0.8 IU/ml; EC50 [5, 20]: 0.86 ± 0.06 IU/ml; EC90 [5, 20]: 5.7 ± 0.4 IU/ml; EC50 ([6]; interferon α-2b in IU/ml): 0.77 ± 0.03 IU/ml; EC90 ([6]; interferon α-2b in IU/ml): 2.6 ± 0.2 IU/ml; EC50 ([7]; interferon α-2b in IU/ml): 2.1 ± 0.2 IU/ml; EC90 ([7]; interferon α-2b in IU/ml): 9.4 ± 0.9 IU/ml; EC50, IFNα-2b ([8]; duration 3 days): 1.9 ± 0.3 IU/mL; EC90, IFNα-2b ([8]; duration 3 days): 8.3 ± 0.9 IU/mL; EC50, IFNα-2b ([8]; duration 6 days): 1.7 ± 0.2 IU/mL; EC90, IFNα-2b ([8]; duration 6 days): 7.8 ± 0.8 IU/mL
